Results from US7358390B2, “Polymorphic forms of nateglinide” (Teva Pharmaceutical Industries Ltd., priority 2002, dated 2008).
Entries after “also recorded” stand apart in the source; their conditions may differ. Values belong to the molecule of their own block, whether it stands above or below them.

Experiments:
[1] = Thermal stability: transformation of crystalline forms on heating or drying, form checked by XRPD; type: physicochemical; settings: for crystal form obtained upon drying/heating: heating under ambient or reduced pressure, generally about 40-80° C.
Description: The various crystalline forms are related to each other in that drying of one form may result in a transformation to another form, namely nateglinide Forms A, B, D, E, F, G, H, I, J, K, L, M, N, Q, S, T, V, Z, α, β, δ, γ, ε, θ and Ω. The drying is carried out by heating a sample under ambient or reduced pressure. Generally, a preferred temperature is from about 40° C. to about 80° C., more preferably under reduced pressure. […] The term “stable” as used herein refers to a polymorphic change of less than about 5% by weight, more preferably less than about 2%, particularly for Form δ.
(§1) X-Ray diffraction was performed on X-Ray powder diffractometer, Scintag®, variable goniometer, Cu-tube, solid state detector. Sample holder: A round standard aluminum sample holder with round zero background quartz plate.
(§2) The sample was put on the sample holder and immediately analyzed as is. • Scanning parameters: Range: 2-40 deg 2θ, Continuos Scan, Rate: 3 deg./min. DSC: • DSC821^e Mettler Toledo®, Sample weight: 3-5 mg, Heating rate: 10° C./min, Number of holes in the crucible: 3 TGA: • Mettler TG50®, Sample weight: 7-15 mg, Heating rate: 10° C./min FTIR: • Perkin-Elmer®, Spectrum One FTIR spectrometer, Range: 4000-400 cm−1, no. of scans: 16, resolution: 4.0 cm−1, DRIFT technique.
Nateglinide Form delta (10 grams), with about 3% heptane (wt/wt), was dried in a fluidized bed drier for 4 hours at 60° C. Residual heptane was 1578 ppm af. Ethyl acetate is under detection limit. Polymorphic form of the dry product is delta.
Sample of nateglinide form U (˜1 g) was introduced into a 6-gram vial and heated over 8.5 h in a 100° C. oil bath. The vial were extracted from the bath.
Sample of nateglinide form U (˜0.5 g) was heated to 120° C. for 1 h in an atmospheric pressure.
Sample of nateglinide form δ (˜0.5 g) was heated to 120° C. for 1 h in an atmospheric pressure.
The product of example 11 was dried at 50° C. in a vacuum oven overnight, and analyzed by XRD.
Nateglinide (40 grams) Form delta (1.5% heptane) was dried in a stirred reactor (7-10 rpm) under 60 mmHg vacuum and at 60° C. After 6 hours of drying, the residual solvent of the material was 613 ppm of heptane.

[2] = Storage of crystalline forms at room temperature, form checked by XRPD; type: physicochemical; settings: for crystal form after storage at RT: room temperature and pressure, open bottle, 24 h (about a day)
Description: The various crystalline forms are also analyzed by Thermal Gravimetric Analysis (TGA). […] In contrast to the above listed forms, TGA profiles of forms L, P, U, α, δ and σ show no significant weight loss. These polymorphic forms of nateglinide are free of bound solvents, i.e., less than about 2% LOD. Table III lists the solvents used for the preparation for nateglinide solvated forms, as well as LOD values based on TGA analysis.
Storage at room temperature and pressure may also cause a transition of one form to another.
as §1, §2

[3] = second endotherm at 138.2° C. after grinding; cited from earlier work
[4] = Exposure of NTG Form H to solvent vapors; type: physicochemical; settings: 4 d, room temperature
Description: Nateglinide (3.50 g) was added to a polypropylene can and weighed. The can was introduced into a bigger polypropylene container containing a solvent, and stored at room temperature. The can was removed from the container and weighed (Wfinal). The can content was divided into 2 portions. One portion was dried at a temperature of 55° C. and a pressure of 20-30 mmHg to constant weight (±0.01 g).

[5] = Stability at about 40° C. and about 75% relative humidity; type: physicochemical; settings: about 40° C., about 75% relative humidity, at least about 3 months
Description: Crystalline Form δ is stable at a temperature of about 40° C. and a relative humidity of about 75% for at least about 3 months.

[6] = 120° C., 1 h, atmospheric pressure

Compound: CC(C)[C@H]1CC[C@H](C(=O)N[C@H](Cc2ccccc2)C(=O)O)CC1 [Form B, nateglinide]
stability during grinding (DSC) [3]: unstable and susceptible to change

Compound: CC(C)[C@H]1CC[C@H](C(=O)N[C@H](Cc2ccccc2)C(=O)O)CC1 [Form C, nateglinide]
crystal form obtained upon drying/heating [1]: convert to Form B; also recorded: Form B or α

Compound: CC(C)[C@H]1CC[C@H](C(=O)N[C@H](Cc2ccccc2)C(=O)O)CC1 [Form E, nateglinide]
crystal form obtained upon drying/heating [1]: convert to Form B

Compound: CC(C)[C@H]1CC[C@H](C(=O)N[C@H](Cc2ccccc2)C(=O)O)CC1 [Form F, nateglinide]
crystal form obtained upon drying/heating [1]: convert to Form B; also recorded: a mixture of Form B and G

Compound: CC(C)[C@H]1CC[C@H](C(=O)N[C@H](Cc2ccccc2)C(=O)O)CC1 [Form H, nateglinide]
Form wet after exposure to solvent vapors ([4]; Acetone vapors): stable | Form wet after exposure to solvent vapors ([4]; Water vapors): stable

Compound: CC(C)[C@H]1CC[C@H](C(=O)N[C@H](Cc2ccccc2)C(=O)O)CC1 [Form N, nateglinide]
crystal form obtained upon drying/heating [1]: Form L

Compound: CC(C)[C@H]1CC[C@H](C(=O)N[C@H](Cc2ccccc2)C(=O)O)CC1 [Form Q, nateglinide]
crystal form obtained upon drying/heating [1]: convert to Form B | crystal form after storage at RT [2]: converts to Form Y | crystal form after storage at RT ([2]; listed as Q): Form Y, which contains

Compound: CC(C)[C@H]1CC[C@H](C(=O)N[C@H](Cc2ccccc2)C(=O)O)CC1 [Form U, nateglinide]
crystal form after heating (XRPD) [1, 6]: Form U | crystal form after heating (XRPD) ([1]; about 100° C. oil bath, 8.5 h): does not undergo a transition | crystal form after heating (XRPD) ([1]; about 100° C. oil bath, 8.5 h, listed as form U): Form U

Compound: CC(C)[C@H]1CC[C@H](C(=O)N[C@H](Cc2ccccc2)C(=O)O)CC1 [Form θ, nateglinide]
crystal form obtained upon drying/heating [1]: convert to Form B

Compound: CC(C)[C@H]1CC[C@H](C(=O)N[C@H](Cc2ccccc2)C(=O)O)CC1 [acetonitrile solvate of Form Epsilon, nateglinide]
crystal form obtained upon drying/heating [1]: Form B

Compound: CC(C)[C@H]1CC[C@H](C(=O)N[C@H](Cc2ccccc2)C(=O)O)CC1 [nitromethane solvates of Form Epsilon, nateglinide]
crystal form obtained upon drying/heating [1]: Forms H or P

More lines, main results first:

crystal form obtained upon drying/heating [1]: convert to Form B | crystal form after storage at RT [2]: partially converts to Form B | crystal form after storage at RT ([2]; listed as A): conversion to Form B
Compound: CC(C)[C@H]1CC[C@H](C(=O)N[C@H](Cc2ccccc2)C(=O)O)CC1 [Form A, nateglinide]

crystal form obtained upon drying/heating [1]: convert to Form B
Compound: CC(C)[C@H]1CC[C@H](C(=O)N[C@H](Cc2ccccc2)C(=O)O)CC1 [Form G, nateglinide]

crystal form after storage at RT [2]: converts to Form L | crystal form after storage at RT ([2]; listed as I): Form L
Compound: CC(C)[C@H]1CC[C@H](C(=O)N[C@H](Cc2ccccc2)C(=O)O)CC1 [Form I, nateglinide]

XRD pattern after storage at RT ([2]; RT, overnight): changed after storage at RT
Compound: CC(C)[C@H]1CC[C@H](C(=O)N[C@H](Cc2ccccc2)C(=O)O)CC1 [Form J, nateglinide]
crystal form obtained upon drying/heating [1]: convert to Form B; also recorded: Form B or β

crystal form obtained upon drying/heating [1]: Form L
Compound: CC(C)[C@H]1CC[C@H](C(=O)N[C@H](Cc2ccccc2)C(=O)O)CC1 [Form M, nateglinide]

crystal form after storage at RT [2]: converts to Form E | crystal form after storage at RT ([2]; listed as T): Form E
Compound: CC(C)[C@H]1CC[C@H](C(=O)N[C@H](Cc2ccccc2)C(=O)O)CC1 [Form T, nateglinide]
crystal form obtained upon drying/heating [1]: convert to Form B; also recorded: a mixture of Form B and G

crystal form obtained upon drying/heating [1]: Form H
Compound: CC(C)[C@H]1CC[C@H](C(=O)N[C@H](Cc2ccccc2)C(=O)O)CC1 [Form V, nateglinide]

crystal form obtained upon drying/heating [1]: convert to Form B
Compound: CC(C)[C@H]1CC[C@H](C(=O)N[C@H](Cc2ccccc2)C(=O)O)CC1 [Form Z, nateglinide]

crystal form after drying (XRD) ([1]; 50° C., vacuum oven, overnight): mixture of Form omega and Form Z | crystal form obtained upon drying/heating [1]: convert to Form B
Compound: CC(C)[C@H]1CC[C@H](C(=O)N[C@H](Cc2ccccc2)C(=O)O)CC1 [Form Ω, nateglinide]

crystal form obtained upon drying/heating [1]: convert to Form B
Compound: CC(C)[C@H]1CC[C@H](C(=O)N[C@H](Cc2ccccc2)C(=O)O)CC1 [Form β, nateglinide]

stability when heated ([1]; 60° C. overnight (at least about 8 hours)): stable | crystal form after heating (XRPD) [1, 6]: Form B | crystal form after heating (XRPD) ([1]; 120° C., 1 h, atmospheric pressure, listed as form δ): Form B | polymorphic form after drying ([1]; fluidized bed drier, 4 hours, 60° C.): delta | crystal form obtained upon drying/heating [1]: convert to Form B | polymorph after drying ([1]; stirred reactor (7-10 rpm), 60 mmHg vacuum, 60° C., 6 hours): remained delta form | stability on storage [5]: stable
Compound: CC(C)[C@H]1CC[C@H](C(=O)N[C@H](Cc2ccccc2)C(=O)O)CC1 [Form δ, nateglinide]

crystal form obtained upon drying/heating [1]: Form H
Compound: CC(C)[C@H]1CC[C@H](C(=O)N[C@H](Cc2ccccc2)C(=O)O)CC1 [Form ε, nateglinide]
